How the values were obtained:
[1] = tested on: Human immunodeficiency virus 1; experiment: Antiviral activity against wild type HIV-1 isolate infected in human PBMC cells assessed as inhibition of viral production by p24 antigen production/ELISA; assay type: functional, organism-based; settings: Human immunodeficiency virus 1, PBMC
[2] = tested on: Human immunodeficiency virus 1; experiment: Fold resistance, ratio of IC50 for NRTI-resistant HIV-1 D67N, T69D, K70R, A98G, V118I, M184V, T215F and K219Q mutant to wild type HIV-1 isolate infected in human PBMC cells; assay type: functional
[3] = Selectivity index, ratio of CCID50 for human PBMC to IC50 for HIV-1 HTLV-3B; assay type: functional
[4] = tested on: Human immunodeficiency virus 1; experiment: Antiviral activity against HIV-1 HTLV-3B infected in human PBMC cells assessed as inhibition of viral production by p24 antigen production/ELISA; assay type: functional, organism-based; settings: Human immunodeficiency virus 1, HTLV-3B
[5] = Cytotoxicity against human PBMC assessed as inhibition of cell growth by trypan blue staining; assay type: cell-based; settings: read-out: CCID50
[6] = Half life in rat; assay type: ADME, organism-based; settings: in vivo

| SMILES | IC50 [4] [µM] | IC50 [1] [µM] | Ratio IC50 [2] | Selectivity Index [3] | CC50 [5] [µM] | half-life [6] [h] |
| --- | --- | --- | --- | --- | --- | --- |
| Cc1cn([C@H]2C[C@H](N=[N+]=[N-])[C@@H](CO)O2)c(=O)[nH]c1=O [ZIDOVUDINE] |  | 0.216 | 4000 |  |  |  |
| O=c1[nH]cnc2c1ncn2[C@H]1CC[C@@H](CO)O1 [DIDANOSINE] | 40 | 3.42 | 900 | 2.3 | 100 | 1 |
| CCCCCOC(=O)OC[C@@H]1CC[C@H](n2cnc3c(=O)nc[nH]c32)O1 | 30 | 6.49 | 600 | 200 | 7000 |  |

Further lines, with some results ahead:

| IC50 [4] [µM] | SMILES | IC50 [1] [µM] | Ratio IC50 [2] | Selectivity Index [3] | CC50 [5] [µM] | half-life [6] [h] |
| --- | --- | --- | --- | --- | --- | --- |
| 490 | CCOC(=O)OC[C@@H]1CC[C@H](n2cnc3c(=O)nc[nH]c32)O1 |  |  | 1.2 | 570 |  |
| 300 | CCCCCCCOC(=O)OC[C@@H]1CC[C@H](n2cnc3c(=O)nc[nH]c32)O1 |  |  | 1.7 | 520 |  |
| 100 | CCCCOC(=O)OC[C@@H]1CC[C@H](n2cnc3c(=O)nc[nH]c32)O1 |  |  | 2.9 | 290 |  |
| 40 | CCCCCCOC(=O)OC[C@@H]1CC[C@H](n2cnc3c(=O)nc[nH]c32)O1 |  |  | 5.2 | 220 |  |

— ChEMBL document CHEMBL3132835, “Biological evaluation and molecular modelling of didanosine derivatives” (Medchemcomm, 2014)
